Results taken from US12581252B2, “Substituted pyrrolo[3,4-b]pyridines as PI3K-α inhibitors” (Relay Therapeutics, Inc., priority 2020, dated 2026).

biological target: H1047R PIK3CA enzyme (Homo sapiens, UniProt P42336, H1047R); test: ADP-Glo Biochemical PIK3CA Kinase Assay
Sequence (P42336 whole entry H1047R): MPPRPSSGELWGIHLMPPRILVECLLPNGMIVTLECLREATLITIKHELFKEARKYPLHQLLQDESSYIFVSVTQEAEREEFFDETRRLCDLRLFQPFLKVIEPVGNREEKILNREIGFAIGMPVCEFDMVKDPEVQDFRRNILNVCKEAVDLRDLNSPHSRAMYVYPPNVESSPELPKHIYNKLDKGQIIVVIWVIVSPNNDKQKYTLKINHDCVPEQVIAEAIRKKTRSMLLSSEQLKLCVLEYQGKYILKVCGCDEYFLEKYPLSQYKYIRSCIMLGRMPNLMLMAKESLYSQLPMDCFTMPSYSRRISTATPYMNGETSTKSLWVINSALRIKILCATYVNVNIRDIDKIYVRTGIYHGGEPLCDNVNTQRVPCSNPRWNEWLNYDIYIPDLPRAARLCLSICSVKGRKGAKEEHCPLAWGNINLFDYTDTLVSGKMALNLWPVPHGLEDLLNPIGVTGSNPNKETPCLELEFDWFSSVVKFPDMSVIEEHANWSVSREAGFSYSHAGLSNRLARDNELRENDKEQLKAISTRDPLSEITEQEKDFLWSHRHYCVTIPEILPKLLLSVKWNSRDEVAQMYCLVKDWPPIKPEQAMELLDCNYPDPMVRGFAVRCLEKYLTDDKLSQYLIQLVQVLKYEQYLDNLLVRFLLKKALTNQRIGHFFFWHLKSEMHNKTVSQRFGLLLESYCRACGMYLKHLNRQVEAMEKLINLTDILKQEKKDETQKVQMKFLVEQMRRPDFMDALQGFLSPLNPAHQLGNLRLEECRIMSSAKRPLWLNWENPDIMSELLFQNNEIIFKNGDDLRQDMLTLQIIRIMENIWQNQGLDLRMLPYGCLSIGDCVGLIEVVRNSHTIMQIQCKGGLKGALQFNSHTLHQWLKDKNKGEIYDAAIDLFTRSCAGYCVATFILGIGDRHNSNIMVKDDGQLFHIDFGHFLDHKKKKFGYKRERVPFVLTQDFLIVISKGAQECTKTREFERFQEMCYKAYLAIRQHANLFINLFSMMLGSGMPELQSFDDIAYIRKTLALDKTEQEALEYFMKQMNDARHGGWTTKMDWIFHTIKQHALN
Sequence (P27986 whole entry partner): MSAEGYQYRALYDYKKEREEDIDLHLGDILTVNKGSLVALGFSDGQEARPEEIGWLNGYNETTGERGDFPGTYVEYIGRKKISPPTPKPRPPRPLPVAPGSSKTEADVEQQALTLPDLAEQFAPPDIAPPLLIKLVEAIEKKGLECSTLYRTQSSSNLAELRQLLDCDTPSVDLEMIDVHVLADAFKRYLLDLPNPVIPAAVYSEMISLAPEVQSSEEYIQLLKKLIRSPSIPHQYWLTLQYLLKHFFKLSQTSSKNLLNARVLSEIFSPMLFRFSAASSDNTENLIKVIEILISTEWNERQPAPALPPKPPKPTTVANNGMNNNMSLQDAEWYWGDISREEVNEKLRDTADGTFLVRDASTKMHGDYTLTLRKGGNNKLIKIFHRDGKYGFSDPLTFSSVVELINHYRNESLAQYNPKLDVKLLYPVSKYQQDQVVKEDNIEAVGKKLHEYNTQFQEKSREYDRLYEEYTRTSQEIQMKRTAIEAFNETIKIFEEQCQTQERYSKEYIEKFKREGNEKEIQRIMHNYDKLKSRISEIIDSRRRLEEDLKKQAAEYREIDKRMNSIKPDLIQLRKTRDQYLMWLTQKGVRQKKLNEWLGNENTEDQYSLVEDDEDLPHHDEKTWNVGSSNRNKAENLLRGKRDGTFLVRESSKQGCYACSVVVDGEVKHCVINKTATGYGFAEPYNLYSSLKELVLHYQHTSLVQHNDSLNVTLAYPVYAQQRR

Compound | IC50
O=C1NCc2c(NC(=O)c3csc4c3CCCC4)cccc21 [Compound I-404] | 10000 to 100000 nM
CC(C)(O)c1cc(NC(=O)c2coc3c(F)cc(F)cc23)c2c(c1)C(=O)NC2c1cc(F)ccc1C(F)F (stereo not shown) [Compound I-290] | ≤ 100 nM
Cc1ccccc1[C@H]1NC(=O)c2cc(N)cc(NC(=O)c3nsc4ccccc34)c21 [Compound I-91] | 500 to 1000 nM
O=C(Nc1cc(CS(=O)(=O)Nc2cccnc2)cc2c1C(c1cc(F)ccc1Cl)NC2=O)c1cc(F)cc(C(F)(F)F)c1 (stereo not shown) [Compound I-1402] | ≤ 100 nM
N#Cc1c(-c2cc(NC(=O)c3cc(F)cc(Cl)c3)c3c(c2)C(=O)N[C@H]3c2cc(F)ccc2Cl)ccc2ncnn12 [Compound I-2063] | 500 to 1000 nM
O=C(Nc1cc(OCc2cccnc2)cc2c1C(c1cc(F)ccc1Cl)NC2=O)c1cc(F)cc(C(F)(F)F)c1 (stereo not shown) [Compound I-1412] | ≤ 100 nM
Cc1ccccc1C1NC(=O)c2cc(C(F)F)cc(NC(=O)c3cc(F)cc(C(F)(F)F)c3)c21 (stereo not shown) [Compound I-692] | 100 to 500 nM
Cn1cc2c(C(=O)Nc3cccc4c3C(c3cc(F)ccc3Cl)NC4=O)cc(F)cc2n1 (stereo not shown) [Compound I-870] | 10000 to 100000 nM
Cc1ccccc1C1NC(=O)c2nccc(NC(=O)c3csc4ccccc34)c21 (stereo not shown) [Compound I-7] | 100 to 500 nM
O=C(Nc1cc(-c2ccnn2C[C@H]2CCOC2)cc2c1C(c1cc(F)ccc1Cl)NC2=O)c1cc(F)cc(C(F)(F)F)c1 (single isomer, unassigned) [Compound I-1406] | ≤ 100 nM
Cn1nccc1C(O)c1cc(NC(=O)c2cc(F)cc(C(F)(F)F)c2)c2c(c1)C(=O)NC2c1cc(F)ccc1Cl (stereo not shown) [Compound I-1389] | ≤ 100 nM
O=C(Nc1cc(N2CCn3cnnc3C2)cc2c1C(c1cc(F)ccc1Cl)NC2=O)c1cc(F)cc(C(F)(F)F)c1 (stereo not shown) [Compound I-1354] | ≤ 100 nM
N#Cc1cccnc1-c1cc(NC(=O)c2cc(F)cc(C(F)(F)F)c2)c2c(c1)C(=O)NC2c1cc(F)ccc1Cl (stereo not shown) [Compound I-1408] | ≤ 100 nM
O=C(Nc1cc(-c2ccc3ncnn3c2)cc2c1[C@@H](c1cc(F)ccc1Cl)NC2=O)c1cc(F)cc(OC(F)(F)F)c1 (stereo in doubt) [Compound I-1117] | 1000 to 10000 nM
O=C(Nc1cc(-c2ccn3ccnc3c2)cc2c1C(c1cc(F)ccc1Cl)NC2=O)c1cc(F)cc(C(F)(F)F)c1 (stereo not shown) [Compound I-1372] | ≤ 100 nM
O=C(Nc1cc(-c2ccc3ncnn3c2)cc2c1[C@H](c1cc(F)ccc1Cl)NC2=O)c1cc(F)c(F)c(Cl)c1 (stereo in doubt) [Compound I-1173] | ≤ 100 nM
O=C(Nc1cc(-c2ccc3ncnn3c2)cc2c1[C@H](c1cc(F)c(F)cc1Cl)NC2=O)c1cc(F)cc(C(F)(F)F)c1 [Compound I-1059] | 1000 to 10000 nM
CC(=O)Nc1cc(NC(=O)c2cc(F)cc(C(F)(F)F)c2)c2c(c1)C(=O)NC2c1cc(F)ccc1Cl (stereo not shown) [Compound I-423] | ≤ 100 nM
Cc1ccccc1C1NC(=O)c2cccc(NC(=O)c3csc4ccncc34)c21 (stereo not shown) [Compound I-74] | 1000 to 10000 nM

Compound | IC50
Cc1ccccc1S(=O)(=O)Cc1cc(NC(=O)c2cc(F)cc(C(F)(F)F)c2)c2c(c1)C(=O)NC2c1cc(F)ccc1Cl (stereo not shown) [Compound I-1433] | ≤ 100 nM
O=C(Nc1cc(Br)cc2c1C(c1cc(F)ccc1Cl)NC2=O)c1cc(F)cc(Cl)c1 (stereo not shown) [Compound I-216] | ≤ 100 nM
Cc1ccccc1C1NC(=O)c2nccc(NC(=O)N3CCc4ncccc43)c21 (stereo not shown) [Compound I-199] | 10000 to 100000 nM
CC(C)(O)c1cc(NC(=O)c2cc(F)cc(C(F)(F)F)c2)c2c(c1)C(=O)N[C@@H]2c1cc(F)ccc1C(F)F [Compound I-263] | 10000 to 100000 nM
O=C(Nc1cc(-c2cnc(OCCO)nc2)cc2c1C(c1cc(F)ccc1Cl)NC2=O)c1cc(F)cc(C(F)(F)F)c1 (stereo not shown) [Compound I-1474] | ≤ 100 nM
CC(c1cc(NC(=O)c2cc(F)cc(C(F)(F)F)c2)c2c(c1)C(=O)NC2c1cc(F)ccc1Cl)[S+](C)[O-] (racemic) [Compound I-1472] | 100 to 500 nM
O=C(Nc1cc(NC(=O)C2CC2)cc2c1C(c1cc(F)ccc1Cl)NC2=O)c1cc(F)cc(C(F)(F)F)c1 (stereo not shown) [Compound I-625] | ≤ 100 nM
O=C1NC(c2cc(F)ccc2Cl)c2c(NC(=O)c3nccc4ccccc34)cc(Br)cc21 (stereo not shown) [Compound I-638] | 10000 to 100000 nM
O=C(Nc1cc(Br)cc2c1C(c1cc(F)ccc1Cl)NC2=O)c1cc(F)c(F)c(Cl)c1 (stereo not shown) [Compound I-564] | ≤ 100 nM
O=C1NC(c2cc(Cl)ccc2Cl)c2c(NC(=O)c3nsc4ccccc34)cccc21 (stereo not shown) [Compound I-157] | ≤ 100 nM
O=C(Nc1cc(CC2COC2)cc2c1C(c1cc(F)ccc1Cl)NC2=O)c1cc(F)cc(C(F)(F)F)c1 (stereo not shown) [Compound I-1279] | ≤ 100 nM
O=C1NC(c2cc(F)ccc2Cl)c2c(NC(=O)C3(C(F)(F)F)CC3)cc(Br)cc21 (stereo not shown) [Compound I-1204] | 10000 to 100000 nM
Cc1ncc(C#N)c(-c2cc(NC(=O)c3cc(F)cc(C(F)(F)F)c3)c3c(c2)C(=O)NC3c2cc(F)ccc2Cl)n1 (stereo not shown) [Compound I-1369] | ≤ 100 nM
O=C1NC(c2cc(F)ccc2Cl)c2c(Nc3nccc4cc[nH]c34)cc(Br)cc21 (stereo not shown) [Compound I-1460] | 10000 to 100000 nM
O=C(Nc1cc(Br)cc2c1C(c1ccccc1Cl)NC2=O)c1cc(F)cc(C(F)(F)F)c1 (stereo not shown) [Compound I-394] | 100 to 500 nM
O=C(Nc1cc(CS(=O)(=O)N2CCC2)cc2c1C(c1cc(F)ccc1Cl)NC2=O)c1cc(F)cc(C(F)(F)F)c1 (stereo not shown) [Compound I-1399] | ≤ 100 nM
Cc1ccccc1C1NC(=O)c2nccc(NC(=O)N3CCc4ccncc43)c21 (stereo not shown) [Compound I-251] | 10000 to 100000 nM
Cn1cc(-c2cc(NC(=O)c3cc(F)cc(Cl)c3)c3c(n2)C(=O)N[C@@H]3c2cc(F)ccc2Cl)cn1 [Compound I-384] | 1000 to 10000 nM

The remaining lines, values ahead:

IC50 | Compound
10000 to 100000 nM | O=C1NC(c2cc(F)ccc2Cl)c2c(NC(=O)N3c4ccccc4C(O)C34CC4)cccc21 (mixture of isomers) [Compound I-2280]
1000 to 10000 nM | CN1CCCC(C(=O)Nc2cc(-c3ccc4ncnn4c3)cc3c2C(c2cc(F)ccc2Cl)NC3=O)C1 (stereo not shown) [Compound I-1792]
100 to 500 nM | N#Cc1cc(NC(=O)N2C[C@H](O)c3cc(F)ccc32)c2c(c1)C(=O)N[C@H]2c1cc(F)ccc1Cl (single isomer, unassigned) [Compound I-2491]
100 to 500 nM | C[S@](=O)(Cc1cc(NC(=O)c2cc(F)cc(C(F)(F)F)c2)c2c(c1)C(=O)N[C@@H]2c1cc(F)ccc1Cl)=NC#N (single isomer, unassigned) [Compound I-1561]
≤ 100 nM | CN(C)S(=O)(=O)n1nccc1-c1cc(NC(=O)c2cc(F)cc(C(F)(F)F)c2)c2c(c1)C(=O)N[C@H]2c1cc(F)ccc1Cl [Compound I-1599]
1000 to 10000 nM | N#CCc1cc(NC(=O)N2C[C@@](O)(C(F)(F)F)c3ccccc32)c2c(c1)C(=O)N[C@@H]2c1cc(F)ccc1Cl (single isomer, unassigned) [Compound I-2603]
1000 to 10000 nM | Cn1nc(C(F)F)cc1-c1cc(NC(=O)c2cc(F)cc(C(F)(F)F)c2)c2c(c1)C(=O)N[C@@H]2c1cc(F)ccc1Cl [Compound I-1879]
1000 to 10000 nM | N#CCCc1cc(NC(=O)N2C[C@@H](O)c3cc(F)ccc32)c2c(c1)C(=O)N[C@@H]2c1cc(F)ccc1Cl (single isomer, unassigned) [Compound I-2348]
1000 to 10000 nM | O=C1NC(c2cc(F)ccc2Cl)c2c(NC(=O)N3CCc4ccc(C(F)(F)F)cc43)cccc21 (stereo not shown) [Compound I-2447]
1000 to 10000 nM | O=C1N[C@H](c2cc(F)ccc2Cl)c2c(NC(=O)N3C[C@@](O)(C(F)(F)F)c4ccccc43)cc(Cl)cc21 (single isomer, unassigned) [Compound I-2506]
10000 to 100000 nM | O=C1NC(c2cc(F)ccc2Cl)c2c(NC(=O)C34CCC(CC3)O4)cc(-c3ccc4ncnn4c3)cc21 (stereo not shown) [Compound I-1966]
10000 to 100000 nM | O=C1N[C@@H](c2cc(F)ccc2Cl)c2c(N[C@H]3CCOc4ccccc43)cc(Br)cc21 (racemic) [Compound I-2013]
10000 to 100000 nM | O=C1NC(c2cc(F)ccc2Cl)c2c(Cn3ccc4ccccc4c3=O)cc(-c3ccc4ncnn4c3)cc21 (stereo not shown) [Compound I-2026]
≤ 100 nM | Cn1nc(C(F)F)cc1-c1cc(NC(=O)c2cc(F)cc(C(F)(F)F)c2)c2c(c1)C(=O)NC2c1cc(F)ccc1Cl (stereo not shown) [Compound I-1839]
10000 to 100000 nM | O=C(Nc1ccccc1)c1cccc2c1C(c1cc(F)ccc1Cl)NC2=O (stereo not shown) [Compound I-2188]
≤ 100 nM | COc1cc2ncnn2cc1-c1cc(NC(=O)c2cc(F)cc(C(F)(F)F)c2)c2c(c1)C(=O)NC2c1cc(F)ccc1Cl (stereo not shown) [Compound I-1700]
10000 to 100000 nM | O=C1N[C@H](c2cc(F)ccc2Cl)c2c(N[C@H]3CCCNC3)cc(-c3ccc4ncnn4c3)cc21 (racemic) [Compound I-2023]
10000 to 100000 nM | O=C1NC(c2cc(F)ccc2Cl)c2c(NC(=O)C3CCCC(O)(C(F)(F)F)C3)cccc21 (stereo not shown) [Compound I-2136]
1000 to 10000 nM | CN1C(=O)NC(c2cc(F)ccc2Cl)c2c(NC(=O)c3cc(F)cc(C(F)(F)F)c3)cccc21 (stereo not shown) [Compound I-1951]
100 to 500 nM | O=C(Nc1cc(-c2cnn(S(=O)(=O)C(F)F)c2)cc2c1[C@@H](c1cc(F)ccc1Cl)NC2=O)c1cc(F)cc(C(F)(F)F)c1 [Compound I-2092]
1000 to 10000 nM | O=C1N[C@H](c2cc(F)ccc2Cl)c2c(NC(=O)N3C[C@](O)(C(F)(F)F)c4ccccc43)cccc21 (single isomer, unassigned) [Compound I-2385]
10000 to 100000 nM | O=C1N[C@H](c2cc(F)ccc2Cl)c2c(NC(=O)N3CCC[C@@](O)(C(F)(F)F)C3)cccc21 (single isomer, unassigned) [Compound I-2113]
≤ 100 nM | Cc1c(-c2cc(NC(=O)c3cc(F)cc(C(F)(F)F)c3)c3c(c2)C(=O)NC3c2cc(F)ccc2Cl)ccc2ncnn12 (stereo not shown) [Compound I-1825]
1000 to 10000 nM | O=C1N[C@H](c2cc(F)ccc2Cl)c2c(NC(=O)N3C[C@H](O)c4cc(F)ccc43)cc(-n3cccn3)cc21 (single isomer, unassigned) [Compound I-2367]
≤ 100 nM | O=C(Nc1cc(Cc2ccc3nncn3c2)cc2c1C(c1cc(F)ccc1Cl)NC2=O)c1cc(F)cc(C(F)(F)F)c1 (stereo not shown) [Compound I-1528]
1000 to 10000 nM | O=C(Nc1cccc2c1C(c1ccccc1)NC2=O)c1cc(F)cc(C(F)(F)F)c1 (stereo not shown) [Compound I-1805]
10000 to 100000 nM | O=C1NC(c2cc(F)ccc2Cl)c2c(NC(=O)N3CC4CC4(F)C3)cc(Br)cc21 (stereo not shown) [Compound I-1954]
